Source: patent publication US8497075B2, “Methods of identifying a modulator that inhibits the binding between Epstein-Barr virus induced receptor 2 and cholesterol derived ligands” (Novartis AG, priority 2008, dated 2013)

Legend:
Experiment in all cases: nuclear hormone receptor reporter gene assay
Assay type in all cases: cell-based
Details in all cases: concentrations up to 10 μM
SXR (NR112) = target: T1, SXR (NR112) (Homo sapiens, UniProt O75469)
T1 sequence (O75469 1-434): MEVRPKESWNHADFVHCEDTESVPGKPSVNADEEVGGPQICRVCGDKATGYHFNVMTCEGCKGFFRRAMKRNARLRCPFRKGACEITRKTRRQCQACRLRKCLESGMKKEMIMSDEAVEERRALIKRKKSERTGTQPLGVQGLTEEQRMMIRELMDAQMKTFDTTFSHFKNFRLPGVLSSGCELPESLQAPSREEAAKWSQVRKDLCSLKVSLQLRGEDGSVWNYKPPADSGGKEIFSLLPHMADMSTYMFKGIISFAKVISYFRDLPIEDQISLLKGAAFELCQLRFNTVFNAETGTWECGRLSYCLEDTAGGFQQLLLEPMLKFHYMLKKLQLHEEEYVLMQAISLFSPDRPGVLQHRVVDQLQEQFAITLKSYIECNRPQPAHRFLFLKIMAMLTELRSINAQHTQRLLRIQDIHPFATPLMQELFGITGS
From the text: (§1) So far oxysterols have been noted to have various physiological activities namely regulate the expression of genes that participate in both sterol and fat metabolism, serve as substrates for the synthesis of bile acids, and are intermediates in the transfer of sterols from the periphery to the liver (Russell, D. W. (2000). Oxysterol biosynthetic enzymes. Biochim. Biophys. Acta 1529, 126-135). […] This included binding assays for 26 different GPCRs, functional assays of 9 different GPCRs, 40 kinase assays, as well as selected ion channels, proteases, transporter and enzyme assays.

GR (NR3C1) = target: T2, GR (NR3C1) (Homo sapiens, UniProt P04150)
T2 sequence (P04150 1-777): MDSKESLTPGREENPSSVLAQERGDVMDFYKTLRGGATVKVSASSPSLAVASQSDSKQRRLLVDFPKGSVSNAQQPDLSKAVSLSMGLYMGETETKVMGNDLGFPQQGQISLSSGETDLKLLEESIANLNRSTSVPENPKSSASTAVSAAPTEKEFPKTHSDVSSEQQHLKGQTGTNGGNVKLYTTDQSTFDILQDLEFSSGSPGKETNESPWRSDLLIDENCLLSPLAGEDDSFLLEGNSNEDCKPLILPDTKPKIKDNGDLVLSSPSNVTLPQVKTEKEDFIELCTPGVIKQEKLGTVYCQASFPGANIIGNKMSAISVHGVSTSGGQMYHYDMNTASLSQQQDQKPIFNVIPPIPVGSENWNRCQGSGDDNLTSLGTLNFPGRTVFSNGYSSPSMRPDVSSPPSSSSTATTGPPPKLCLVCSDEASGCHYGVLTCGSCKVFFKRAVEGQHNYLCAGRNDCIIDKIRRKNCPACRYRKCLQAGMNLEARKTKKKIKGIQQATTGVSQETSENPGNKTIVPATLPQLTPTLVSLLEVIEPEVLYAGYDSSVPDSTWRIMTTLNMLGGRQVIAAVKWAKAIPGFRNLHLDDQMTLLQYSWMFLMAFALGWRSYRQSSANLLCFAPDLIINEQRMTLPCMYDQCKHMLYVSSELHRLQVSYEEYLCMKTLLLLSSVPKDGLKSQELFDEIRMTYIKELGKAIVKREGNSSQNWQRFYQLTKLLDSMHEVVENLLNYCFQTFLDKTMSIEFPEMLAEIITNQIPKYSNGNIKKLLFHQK
From the text: as §1

PPARg (NR1C3) = target: T3, PPARg (NR1C3) (Homo sapiens, UniProt P37231)
T3 sequence (P37231 1-505): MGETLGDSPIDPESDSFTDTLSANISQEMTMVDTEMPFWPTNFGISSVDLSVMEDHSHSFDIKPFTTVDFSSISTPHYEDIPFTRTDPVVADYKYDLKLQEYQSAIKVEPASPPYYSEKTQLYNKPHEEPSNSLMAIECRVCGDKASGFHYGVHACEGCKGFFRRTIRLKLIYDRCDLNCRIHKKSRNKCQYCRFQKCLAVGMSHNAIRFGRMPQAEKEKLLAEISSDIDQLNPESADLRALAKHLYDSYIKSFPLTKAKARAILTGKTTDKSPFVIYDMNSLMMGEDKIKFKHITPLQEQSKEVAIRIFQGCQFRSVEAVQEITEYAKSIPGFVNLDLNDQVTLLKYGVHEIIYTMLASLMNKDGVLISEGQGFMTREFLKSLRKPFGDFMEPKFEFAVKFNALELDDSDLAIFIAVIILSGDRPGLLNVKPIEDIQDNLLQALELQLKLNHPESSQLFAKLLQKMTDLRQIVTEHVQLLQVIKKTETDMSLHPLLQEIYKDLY
From the text: as §1

ERa (NR3A1) = target: T4, ERa (NR3A1) (Homo sapiens, UniProt P03372)
T4 sequence (P03372 1-595): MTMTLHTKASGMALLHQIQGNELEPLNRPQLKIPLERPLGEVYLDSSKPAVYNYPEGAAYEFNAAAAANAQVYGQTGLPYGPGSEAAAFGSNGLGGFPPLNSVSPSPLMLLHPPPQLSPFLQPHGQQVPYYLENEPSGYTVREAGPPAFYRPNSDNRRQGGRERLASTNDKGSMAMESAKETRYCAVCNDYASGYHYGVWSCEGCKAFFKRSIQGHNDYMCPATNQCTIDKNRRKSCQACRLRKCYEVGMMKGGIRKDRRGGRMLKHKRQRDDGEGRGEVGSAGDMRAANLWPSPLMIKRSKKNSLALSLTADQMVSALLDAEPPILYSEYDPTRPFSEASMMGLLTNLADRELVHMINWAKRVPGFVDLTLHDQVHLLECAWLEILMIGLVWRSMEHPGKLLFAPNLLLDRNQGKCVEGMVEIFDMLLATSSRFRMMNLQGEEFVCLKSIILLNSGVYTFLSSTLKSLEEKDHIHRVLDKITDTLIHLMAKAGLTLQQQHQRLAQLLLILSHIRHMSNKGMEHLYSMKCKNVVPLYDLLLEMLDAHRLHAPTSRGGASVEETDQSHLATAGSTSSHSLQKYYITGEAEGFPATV
From the text: as §1

C[C@H](CCCC(C)(C)O)[C@H]1CC[C@H]2[C@@H]3[C@H](O)C=C4C[C@@H](O)CC[C@]4(C)[C@H]3CC[C@]12C [7a,25DHC, cholest-5-ene-3b,7a,25-triol]
did not activate: activation of SXR (SXR (NR112)) | activation of GR (GR (NR3C1)) | activation of PPARg (PPARg (NR1C3)) | activation of ERa (ERa (NR3A1))

CC(CO)CCC[C@@H](C)[C@H]1CC[C@H]2[C@@H]3[C@H](O)C=C4C[C@@H](O)CC[C@]4(C)[C@H]3CC[C@]12C (some centres unmarked) [7a,27DHC, cholest-5-ene-3b,7a,27-triol]
did not activate: activation of SXR (SXR (NR112)) | activation of GR (GR (NR3C1)) | activation of PPARg (PPARg (NR1C3)) | activation of ERa (ERa (NR3A1))
